Experimental findings from paper PMC11784013, “Potassium molybdate blocks APN-dependent coronavirus entry by degrading receptor via PIK3C3-mediated autophagy” (Journal of Virology, 2024) are described below.

“Also recorded” adds a separate entry of the source.

Data set [1] is classed as in vivo. The conditions noted are these: piglets, oral PM 100 mg/kg. How it is done:
Neonatal pigs spontaneously delivered from sows were confirmed to be negative for TGEV by RT-qPCR and enzyme-linked immunosorbent assay. For the cytotoxicity and pharmacokinetic parameters of the PM, three piglets were orally administered PM (100 mg/kg), and the serum was collected by venipuncture at 0, 1, 2, 4, 6, 8, 10, 12, 16, and 24 h after oral administration of PM for cytotoxicity assays and pharmacokinetic parameter determination. For antiviral animal experiments, piglets were randomly separated into four groups: the mock group ([3]), TGEV group ([3]), TGEV-PM-therapy group ([3]), and TGEV-PM-prevention group ([3]). For the TGEV group, neonatal pigs were orally administered 1.245 × 10^8 PFU TGEV Miller for 24 h. In addition, piglets in the TGEV-PM therapy group were orally infected with 1.245 × 10^8 PFU TGEV Miller and then treated with PM (100 mg/kg). For the TGEV-PM-prevention group, three neonatal pigs were orally pretreated with PM (100 mg/kg) for 24 h and subsequently inoculated with 1.245 × 10^8 PFU TGEV Miller for 24 h. The body weights of all piglets were recorded, and anal swabs were collected every 12 h. At 24 hpi, all pigs were euthanized, and intestinal tissues were collected for RT-qPCR, western blot, IFA, and pathological examination. All animals were handled in strict accordance with good animal practice according to the Animal Ethics Procedures and Guidelines of the People’s Republic of China, and the study was approved by The Animal Administration and Ethics Committee of Lanzhou Veterinary Research Institute, Chinese Academy of Agricultural Sciences (Permit No. LVRIAEC-2020-030).
Fig. S9. Cytotoxicity assay and t1/2 detection of PM in piglets. (A) The serum of piglets orally administered PM were collected at 1, 2, 4, 6, 8, 10, 12, 16 and 24 hours respectively and AST, CK and CREA level in those sera were measured by biochemical parameters. (B) PM concentrations at indicated times in piglets were determined by ICP-MS. Results are presented as mean ± SD of data from three independent experiments ns, no significant.

The subject of the next data set is TGEV. Nature of the data set: Time-of-drug-addition assay with TGEV in ST cells (inactivation, adsorption, penetration, replication, release). The class given is cell-based, transmissible gastroenteritis virus. How it is done: Fig 4 PM dampens TGEV infection by mainly blocking viral entry. (A) Inactivated assay. TGEV (0.1 MOI, red bar) and PM (10 mΜ) or H2O (blue bar) were mixed and incubated at 37°C for 3 and 5 h, respectively, and then the mixtures were added into ST cells. After incubation at 37°C for another 1 h, culture supernatants were replaced with fresh culture medium for 17 h at 37°C. After washing with PBS, the mRNA levels and viral load of TGEV N protein were measured by RT-qPCR. (B) Adsorption assay. ST cells were pretreated with PM (10 mΜ) or H2O (blue bar) for 1 h at 37°C, and then the media were replaced by a mixture of PM (10 mΜ) or H2O and TGEV (5 MOI, red bar) for 0.5 or 1 h at 4°C. After washing with PBS, the genomic RNA levels and viral load of TGEV N protein were measured by RT-qPCR. (C and D) Penetration assay. ST cells were infected with 5 MOI TGEV (red bar) for 1 h at 4°C and were then treated with PM (10 mΜ) or H2O (blue bar) for 1 or 2 h at 37°C after washing with PBS. The cell samples were washed using sodium citrate buffer and tested through RT-qPCR (C) and IFA (D), scale bar: 50 µm/5 µm. (E) Replication assay. ST cells infected with 5 MOI TGEV (red bar) were incubated at 37°C for 3 h and washed with sodium citrate buffer. Then, cells were treated with PM (10 mΜ) or H2O (blue bar) for 5 or 13 h. The cells were harvested and examined by RT-qPCR. (F) Release assay. ST cells were infected with 5 MOI TGEV (red bar) for 16 h and then PM (10 mΜ) or H2O (blue bar) was added to the cells for 1 or 2 h. qRT-PCR was used to test the mRNA levels and viral load of the virus in the supernatant. Results are presented as mean ± SD of data from three independent experiments. ***, P ≤ 0.001; ns, no significance. […]
red bar) and PM (10 mΜ) or H2O (blue bar) were mixed and incubated at 37 °C for 3 h and 5 h respectively and then the mixtures were added into ST cells. After incubation at 37°C for another 1 h, culture supernatants were replaced with fresh culture medium for 17 h at 37°C. Viral titers were detected by TCID50. (B) Release assay. ST cells were infected with 0.1 MOI TGEV (red bar) for 16 h and then PM (10 mΜ) or H2O (blue bar) was added to the cells for 1 h or 2 h. TCID50 was used to test the viral titers in supernatant. Results are presented as mean ± SD of data from three independent experiments ns, no significant.
(also on this page, place not known: 3h 5h 0 2 4 6 8 H2O PM log10 TCID50/ml ns ns 0 2 4 6 8 H2O PM log10 TCID50/ml ns ns -3h-5h 17h 18h CollectedPM/H2O) […]

As usually defined, the AUC(0-t) is exposure summed from dosing to a finite time, without extrapolation to infinity. One may read the Cmax as the highest concentration seen after dosing. What is called Tmax is the time at which the peak concentration occurs.

Take `[K+].[K+].[O]=[Mo](=[O])([O-])[O-]` [PM, potassium molybdate]: in data set [1], the t1/2 result is reported as “approximately 12 h”. Further, in data set [1] (serum, mean ± SD), the “AUC(0-t)” value is 975.253 ± 33.380 µg·h/mL, the “AUC(0-∞)” value is listed as 1,341.054 ± 21.475 mg/L*h, the CLz/F came to 1.23 ± 0.017 mL/min/kg and the Cmax came out at 62.645 ± 0.677 µg/mL. Also, in data set [1] (serum, mean ± SD), the “MRT(0-t)” value was found to be 10.735 ± 0.155 h, the “MRT(0-∞)” value came to 19.027 ± 1.388 h, the Tmax turned out to be 7.333 ± 2.309 h and the Vz/F stood at 1.267 ± 0.093 L/kg. In data set [1] (serum, mean ± SD), this compound showed a t1/2z of 11.784 ± 0.954 h. Further, the “direct inactivation of TGEV (inactivated assay)” value in the data set on TGEV (PM 10 mM mixed with TGEV 0.1 MOI at 37°C for 3 and 5 h, RT-qPCR, TCID50) was “cannot inactivate TGEV and affect viral release”. In addition, in the data set on TGEV (ST cells, PM 10 mM added 16 h after infection for 1 or 2 h, RT-qPCR, TCID50 of supernatant), the TGEV release entry was “cannot inactivate TGEV and affect viral release; also recorded: uninfluential in virus adsorption and release”. In the data set on TGEV (ST cells, PM 10 mM, TGEV 5 MOI, 0.5 or 1 h at 4°C, RT-qPCR), the TGEV adsorption result is “uninfluential in virus adsorption and release”. Besides, the “TGEV entry (penetration assay)” value with TGEV (ST cells, PM 10 mM, TGEV 5 MOI, 1 or 2 h at 37°C, RT-qPCR and IFA) is listed as “significantly inhibited TGEV entry”. Further, the TGEV replication result in the data set with TGEV (ST cells, PM 10 mM, TGEV 5 MOI, PM for 5 or 13 h from 3 h after infection, RT-qPCR) is “moderately restricted viral replication”.
